Consider 34 compounds from publication PMC3199943, “Screening the MayBridge Rule of 3 Fragment Library for Compounds That Interact with the Trypanosoma brucei myo-Inositol-3-Phosphate Synthase and/or Show Trypanocidal Activity” (Molecular Biology International, 2011).

Structures can show the parent of a compound that is named as a salt. Where two headings read alike, the source gives them in different places.

Experiment [1] relates to HeLa cells. The experiment is described as follows: cells. The settings on record: for viability at 500 µM / CC50: Homo sapiens, HeLa; for viability at 500 µM: 65 h; for HeLa Cells Alamar Blue: Supplementary Table 1; for CC50: read-out: HeLa ED50. Summed up: (§1)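 Alamar Blue read-out after a 5 h dye incubation that followed ~65 h compound exposure. Cells: HeLa or A549, 2 × 10^4/well, DMEM + 10% FCS + 2 mM L-Glutamine.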

In experiment [2] the test system is A549 cells. Kind of experiment: Cytotoxicity against A549 cells, Alamar Blue. In kind it is cell-based. The following applies: Supplementary Table 1, compound 0.5 mM, percentage of controls (n=1); for viability at 500 µM: Homo sapiens, A549, 65 h. Summed up: as §1
In experiment [3] the target is T1, TbINO1 (Trypanosoma brucei brucei, UniProt Q5QQ46).
T1 sequence (Q5QQ46 1-528): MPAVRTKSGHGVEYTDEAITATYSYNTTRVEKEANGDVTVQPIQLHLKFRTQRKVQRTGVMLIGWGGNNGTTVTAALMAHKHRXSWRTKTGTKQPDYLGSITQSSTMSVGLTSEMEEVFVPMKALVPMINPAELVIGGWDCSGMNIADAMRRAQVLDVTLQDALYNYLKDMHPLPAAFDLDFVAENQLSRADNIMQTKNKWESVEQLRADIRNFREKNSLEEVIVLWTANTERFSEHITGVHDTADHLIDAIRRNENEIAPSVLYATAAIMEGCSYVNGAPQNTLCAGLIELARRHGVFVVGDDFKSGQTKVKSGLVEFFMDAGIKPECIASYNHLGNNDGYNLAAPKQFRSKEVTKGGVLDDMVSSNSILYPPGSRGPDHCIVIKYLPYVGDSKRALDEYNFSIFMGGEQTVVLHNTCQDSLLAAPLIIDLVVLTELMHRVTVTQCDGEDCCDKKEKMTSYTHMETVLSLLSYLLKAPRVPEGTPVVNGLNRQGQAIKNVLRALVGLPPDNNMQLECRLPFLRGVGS
The experiment is described as follows: biochemical. It is filed as binding.

The mark [4] stands for this setting: read-out: HeLa Cells Alamar Blue.
[5] abbreviates: read-out: Tb Ino1 Tm Shift [˚C].
The mark [6] stands for this setting: compound 0.5 mM, percentage of controls, mean ± SD (n=3) or SE (n=2).
Setting [7] is: Supplementary Table 1, compound 1mM, mean ± SD from Boltzman curve fitting.
Setting [8] is: read-out: HeLa Cells Alamar Blue (% survival).

Regarding `Nc1cccc(-c2cncnc2)c1` [compound 353, 3‐pyrimidin‐5‐ylaniline], the viability at 500 µM in experiment [1] (setting [4]) was 78.7 ± 10%; in experiment [2] it was 56.4%. The ΔTm at 1000 µM in experiment [3] (setting [5]) came to 0.44 ± 0.06 °C.
On the same counts, the results for `CCOC(=O)c1csc(C)n1` [compound 356, ethyl 2‐methyl‐1,3‐thiazole‐4‐carboxylate] are 106 ± 5.3%, 79.8% and 0.28 ± 0.08 °C.
For the compound `O=C(O)Cc1cc(F)cc(F)c1` [compound 359, 2‐(3,5‐difluorophenyl)acetic acid], the viability at 500 µM in experiment [1] (setting [4]) amounted to 108 ± 13.6%; in experiment [2], 128%. Besides, in experiment [3] (setting [5]), the ΔTm at 1000 µM was found to be 0.13 ± 0.06 °C.
Turning to `CC(=O)c1cc(F)cc(F)c1O` [compound 360, 1‐(3,5‐difluoro‐2‐hydroxyphenyl)ethan‐1‐one], the “HeLa Cells Alamar Blue” value in experiment [1] (setting [6]) was 103.5 ± 10 percentage of controls. Moreover, in experiment [2], the “A549 Cells Alamar Blue” value is 149.7 percentage of controls. Also, the “Tb Ino1 Tm Shift [˚C]” value in experiment [3] (setting [7]) is 1.29 ± 0.05 °C.
Take `N#Cc1cccc(N2CCCC2)c1` [compound 362, 3‐pyrrolidin‐1‐ylbenzonitrile]: the figures for the viability at 500 µM in experiment [1] (setting [4]) and in experiment [2] were 97.4 ± 19.9% and 63.3%, respectively. Also, the ΔTm at 1000 µM in experiment [3] (setting [5]) came out at 0.05 ± 0.07 °C.
On the same counts, the results for `O=C(O)c1ccnc2ccccc12` [compound 368, quinoline‐4‐carboxylic acid] are 90.7 ± 7.5%, 90.3% and 0.33 ± 0.08 °C.
For `O=C(O)c1ccc2ccccc2n1` [compound 369, 2‐quinolinecarboxylic acid], the viability at 500 µM was 81.3 ± 14.1% in experiment [1] (read-out: HeLa Cells Alamar Blue, Supplementary Table 1, compound 0.5 mM, percentage of controls, mean ± SD (n=3) or SE (n=2)) and 152% in experiment [2]. Moreover, the ΔTm at 1000 µM in experiment [3] (Supplementary Table 1, compound 1mM, mean ± SD from Boltzman curve fitting, read-out: Tb Ino1 Tm Shift [˚C]) was 0.1 ± 0.67 °C.
As for `O=C(O)c1ccc2ncccc2c1` [compound 370, quinoline‐6‐carboxylic acid], the viability at 500 µM worked out at 109 ± 13.1% in experiment [1] (setting [4]) and 152% in experiment [2]. Further, the ΔTm at 1000 µM in experiment [3] (setting [5]) was 0.57 ± 0.04 °C.
On the same counts, the results for `OCc1ccccc1-n1cccc1` [compound 371, [2‐(1H‐pyrrol‐1‐yl)phenyl]methanol] are 88.5 ± 6.4%, 87.3% and 0.36 ± 0.07 °C.
Turning to `OCc1ccc(-n2cccc2)cc1` [compound 372, [4-(1H-pyrrol-1-yl)phenyl]methanol], the viability at 500 µM in experiment [1] (setting [4]) was determined as 94.9 ± 19.4%; in experiment [1] (setting [8]), 94.9 ± 19.4%; in experiment [2], 52.9%. Moreover, the CC50 in experiment [1] was 3300 ± 210 µM. The ΔTm at 1000 µM in experiment [3] (read-out: TbIno1 Tm shift [°C]) was determined as 3.12 ± 0.04 °C.
In the case of `NCc1ccc(-c2ccco2)cc1` [compound 373, [4‐(2‐furyl)phenyl]methylamine], the values for the viability at 500 µM in experiment [1] (setting [4]) and in experiment [2] were 82.5 ± 14.3% and 63.4%, respectively. The ΔTm at 1000 µM in experiment [3] (setting [5]) was found to be 0.48 ± 0.05 °C.
Turning to `Cc1ccc2cc(CO)ccc2n1` [compound 374, (2‐methyl‐6‐quinolinyl)methanol], the viability at 500 µM in experiment [1] (setting [4]) worked out at 53.2 ± 2.6%; in experiment [2], 46.3%. Besides, the ΔTm at 1000 µM in experiment [3] (setting [5]) was determined as 0.1 ± 0.06 °C.
For `Nc1cccc(Cn2ccnc2)c1` [compound 377, 3‐(1H‐imidazol‐1‐ylmethyl)aniline], in that order: 103 ± 12.6%, 62.4% and 0.19 ± 0.07 °C.
Take `NCc1ccc(-n2cccn2)cc1` [compound 378, 4‐(1H‐pyrazol‐1‐yl)benzylamine]: the viability at 500 µM was determined as 101 ± 8.3% in experiment [1] (setting [4]) and 95.9% in experiment [2]. In addition, the ΔTm at 1000 µM in experiment [3] (setting [5]) is 0.19 ± 0.06 °C.
On to `C#CCN1CCS(=O)(=O)CC1` [compound 379, 4‐(Prop‐2‐ynyl)thiomorpholine 1,1‐dioxide], for which the “HeLa Cells Alamar Blue” value in experiment [1] (setting [6]) was 95.6 ± 12.9 percentage of controls. For the same compound, the “A549 Cells Alamar Blue” value in experiment [2] was 154 percentage of controls. Moreover, the “Tb Ino1 Tm Shift [˚C]” value in experiment [3] (setting [7]) was 0.32 ± 0.08 °C.
For the compound `NC(=O)c1ccc(F)c(Cl)c1` [compound 380, 3‐chloro‐4‐fluorobenzamide], the viability at 500 µM in experiment [1] (setting [4]) worked out at 92.2 ± 13.4%; in experiment [2], 95.9%. For the same compound, the ΔTm at 1000 µM in experiment [3] (setting [5]) is 0.31 ± 0.06 °C.
On the same counts, the results for `O=C(O)Cc1cccnc1` [compound 381, pyridin‐3‐ylacetic acid hydrochloride] are 99.2 ± 9.9%, 105% and 1.08 ± 0.05 °C.
`OCc1ccc(-c2ccco2)cc1` [compound 383, [4-(2-furyl)phenyl]methanol]: the viability at 500 µM stood at 20 ± 10.6% in experiment [1] (setting [4]), 20 ± 10.6% in experiment [1] (setting [8]) and 89.6% in experiment [2]. For the same compound, in experiment [1], the CC50 was 292 ± 31 µM. Besides, the ΔTm at 1000 µM in experiment [3] (read-out: TbIno1 Tm shift [°C]) is 3.45 ± 0.09 °C.
Turning to `N#CCc1nc2ccccc2s1` [compound 387, 2‐(1,3‐benzothiazol‐2‐yl)acetonitrile], the viability at 500 µM is 86.4 ± 10.4% in experiment [1] (setting [4]) and 81% in experiment [2]. Also, the ΔTm at 1000 µM in experiment [3] (setting [5]) was found to be 1.29 ± 0.14 °C.
`CSc1ccc(C(=O)O)s1` [compound 389, 5‐(methylthio)thiophene‐2‐carboxylic acid]: the “HeLa Cells Alamar Blue” value in experiment [1] (setting [6]) is 104.2 ± 16.4 percentage of controls. Besides, the “A549 Cells Alamar Blue” value in experiment [2] was 125.1 percentage of controls. Moreover, in experiment [3] (setting [7]), the “Tb Ino1 Tm Shift [˚C]” value is 0.43 ± 0.05 °C.
As for `NCc1ccc(C(F)(F)F)cc1` [compound 390, 4‐(trifluoromethyl)benzylamine], the values for the viability at 500 µM in experiment [1] (setting [4]) and in experiment [2] were 84.4 ± 6.8% and 136%, respectively. In addition, the ΔTm at 1000 µM in experiment [3] (setting [5]) came out at 0.38 ± 0.08 °C.
In the case of `O=C(O)Cc1c[nH]c2ccccc12` [compound 391, 2-(1H-indol-3-yl)acetic acid], the viability at 500 µM in experiment [1] (setting [4]) came to 42.6 ± 6.4%; in experiment [1] (setting [8]), 42.6 ± 6.4%; in experiment [2], 134%. Also, the ΔTm at 1000 µM in experiment [3] (read-out: TbIno1 Tm shift [°C]) came to 1.67 ± 0.08 °C.
As for `COC(=O)c1c[nH]c2ccccc12` [compound 392, methyl 1H‐indole‐3‐carboxylate], the viability at 500 µM stood at 110 ± 3.7% in experiment [1] (setting [4]) and 88.1% in experiment [2]. Besides, in experiment [3] (setting [5]), the ΔTm at 1000 µM stood at 0.22 ± 0.06 °C.
On the same counts, the results for `Cn1ccc2cc(C(=O)O)ccc21` [compound 394, 1‐methyl‐1H‐indole‐5‐carboxylic acid] are 95 ± 12.2%, 82% and 0 °C.
In the case of `Cn1c(=O)cc(O)c2ccccc21` [compound 395, 4-hydroxy-1-methyl-1,2-dihydroquinolin-2-one], the values for the viability at 500 µM in experiment [1] (setting [4]), in experiment [1] (setting [8]) and in experiment [2] were 93 ± 0.3%, 93 ± 0.3% and 174%, respectively. The ΔTm at 1000 µM in experiment [3] (read-out: TbIno1 Tm shift [°C]) worked out at 1.62 ± 0.03 °C.
`COC(=O)c1cccc2cc[nH]c12` [compound 396, methyl 1H‐indole‐7‐carboxylate]: the results for the viability at 500 µM in experiment [1] (setting [4]) and in experiment [2] were 36.5 ± 11.9% and 164%, respectively. In addition, the ΔTm at 1000 µM in experiment [3] (setting [5]) came to 0.12 ± 0.11 °C.
On the same counts, the results for `Cn1ccc2c(C(=O)O)cccc21` [compound 399, 1‐methyl‐1H‐indole‐4‐carboxylic acid] are 99.3 ± 14.2%, 123% and 0.63 ± 0.07 °C.
On the same counts, the results for `CC(=O)Nc1ccc2c(c1)CCC2` [compound 400, N1‐(2,3‐dihydro‐1H‐inden‐5‐yl)acetamide] are 23.9 ± 13.6%, 99.3% and 0.12 ± 0.07 °C.
For `CCOC(=O)C1CSCCN1` (stereo not drawn) [compound 402, ethyl thiomorpholine‐3‐carboxylate], in that order: 107 ± 18.3%, 95.2% and 0.45 ± 0.08 °C.
For `Nc1cccc(-c2cccs2)c1` [compound 403, 3‐(2‐thienyl)aniline], the viability at 500 µM in experiment [1] (setting [4]) was determined as 49.1 ± 15.7%; in experiment [2] it was 52.3%. In experiment [3] (setting [5]), the ΔTm at 1000 µM was determined as 0.04 ± 0.04 °C.
As to `Nc1cccc(-c2ccsc2)c1` [compound 404, 3‐thien‐3‐ylaniline], the viability at 500 µM stood at 89.4 ± 17.7% in experiment [1] (setting [4]) and 83.3% in experiment [2]. The ΔTm at 1000 µM in experiment [3] (setting [5]) was 0.17 ± 0.05 °C.
For `O=C1CC(C(=O)O)c2ccccc21` (stereo not drawn) [compound 409, 3‐oxoindane‐1‐carboxylic acid], in that order: 107 ± 10.9%, 92% and 0.03 ± 0.07 °C.
Regarding `O=C(O)Cc1coc2ccccc12` [compound 410, benzo[b]furan‐3‐ylacetic acid], the viability at 500 µM in experiment [1] (setting [4]) is 54.1 ± 10.3%; in experiment [2], 97.4%. In experiment [3] (setting [5]), the ΔTm at 1000 µM is 0.8 ± 0.07 °C.
For the compound `NCc1ccc(N2CCCC2)cc1` [compound 414, [4‐(1‐pyrrolidinyl)phenyl]methanamine], the viability at 500 µM in experiment [1] (setting [4]) turned out to be 68 ± 13.7%; in experiment [2], 96.8%. For the same compound, the ΔTm at 1000 µM in experiment [3] (setting [5]) was 0.14 ± 0.07 °C.
